Test results taken from ChEMBL document CHEMBL1134245, “Two novel and potent 3-[(o-methoxyphenyl)piperazinylethyl]-5-phenylthien” (Bioorg Med Chem Lett, 2001).

Columns and labels:
[1] = biological target: T1, Alpha-1D adrenergic receptor (Rattus norvegicus, UniProt P23944); assay: Binding affinity towards rat Alpha-1D adrenergic receptor
T1 sequence (P23944 whole entry): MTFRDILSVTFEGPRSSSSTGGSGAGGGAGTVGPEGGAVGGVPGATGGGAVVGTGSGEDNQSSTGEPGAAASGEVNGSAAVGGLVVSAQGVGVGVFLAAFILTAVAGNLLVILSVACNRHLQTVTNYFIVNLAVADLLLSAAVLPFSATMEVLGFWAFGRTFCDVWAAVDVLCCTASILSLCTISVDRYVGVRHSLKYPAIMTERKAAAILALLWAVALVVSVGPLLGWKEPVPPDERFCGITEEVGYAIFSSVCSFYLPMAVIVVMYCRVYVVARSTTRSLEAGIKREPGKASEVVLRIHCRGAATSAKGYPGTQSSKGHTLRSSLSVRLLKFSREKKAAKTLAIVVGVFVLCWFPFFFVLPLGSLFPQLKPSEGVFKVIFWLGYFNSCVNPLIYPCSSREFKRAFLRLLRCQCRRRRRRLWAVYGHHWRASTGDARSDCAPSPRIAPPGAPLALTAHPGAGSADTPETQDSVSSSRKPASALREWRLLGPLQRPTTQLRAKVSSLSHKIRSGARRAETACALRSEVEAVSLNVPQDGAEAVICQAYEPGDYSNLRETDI

[2] = biological target: T2, Alpha-1A adrenergic receptor (Rattus norvegicus, UniProt P43140); assay: Binding affinity towards rat Alpha-1A adrenergic receptor
T2 sequence (P43140 whole entry): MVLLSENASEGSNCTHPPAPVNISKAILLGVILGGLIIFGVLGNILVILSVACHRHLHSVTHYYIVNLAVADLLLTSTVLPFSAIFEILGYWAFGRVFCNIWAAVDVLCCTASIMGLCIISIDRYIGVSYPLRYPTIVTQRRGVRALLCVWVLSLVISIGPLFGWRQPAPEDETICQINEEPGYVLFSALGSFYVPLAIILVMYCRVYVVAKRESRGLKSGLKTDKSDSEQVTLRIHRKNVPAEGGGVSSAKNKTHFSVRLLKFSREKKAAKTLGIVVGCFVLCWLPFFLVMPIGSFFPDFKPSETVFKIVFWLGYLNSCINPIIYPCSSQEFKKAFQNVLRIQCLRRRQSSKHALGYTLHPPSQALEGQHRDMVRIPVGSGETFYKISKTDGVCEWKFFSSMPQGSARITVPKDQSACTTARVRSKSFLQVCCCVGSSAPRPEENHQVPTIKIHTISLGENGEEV

[3] = biological target: T3, Alpha-1D adrenergic receptor (Homo sapiens, UniProt P25100); assay: Binding affinity towards human Alpha-1D adrenergic receptor
T3 sequence (P25100 whole entry): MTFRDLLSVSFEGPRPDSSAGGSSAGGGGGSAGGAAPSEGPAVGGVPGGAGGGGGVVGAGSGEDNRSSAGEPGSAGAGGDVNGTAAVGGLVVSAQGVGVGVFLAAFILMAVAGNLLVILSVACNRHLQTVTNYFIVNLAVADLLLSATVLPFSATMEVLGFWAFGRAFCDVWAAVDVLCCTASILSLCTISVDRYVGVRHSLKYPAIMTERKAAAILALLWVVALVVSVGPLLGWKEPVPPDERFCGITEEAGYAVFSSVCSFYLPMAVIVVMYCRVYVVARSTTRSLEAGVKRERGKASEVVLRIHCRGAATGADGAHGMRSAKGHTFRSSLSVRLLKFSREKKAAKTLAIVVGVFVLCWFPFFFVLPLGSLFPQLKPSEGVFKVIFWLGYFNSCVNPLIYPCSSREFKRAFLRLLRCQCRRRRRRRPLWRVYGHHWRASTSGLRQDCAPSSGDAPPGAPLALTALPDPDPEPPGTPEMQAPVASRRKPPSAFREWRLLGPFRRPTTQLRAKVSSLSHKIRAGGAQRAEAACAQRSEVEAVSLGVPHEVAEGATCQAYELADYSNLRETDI

[4] = biological target: T4, Alpha-1A adrenergic receptor (Bos taurus, UniProt P18130); assay: Binding affinity towards bovine Alpha-1A adrenergic receptor
T4 sequence (P18130 whole entry): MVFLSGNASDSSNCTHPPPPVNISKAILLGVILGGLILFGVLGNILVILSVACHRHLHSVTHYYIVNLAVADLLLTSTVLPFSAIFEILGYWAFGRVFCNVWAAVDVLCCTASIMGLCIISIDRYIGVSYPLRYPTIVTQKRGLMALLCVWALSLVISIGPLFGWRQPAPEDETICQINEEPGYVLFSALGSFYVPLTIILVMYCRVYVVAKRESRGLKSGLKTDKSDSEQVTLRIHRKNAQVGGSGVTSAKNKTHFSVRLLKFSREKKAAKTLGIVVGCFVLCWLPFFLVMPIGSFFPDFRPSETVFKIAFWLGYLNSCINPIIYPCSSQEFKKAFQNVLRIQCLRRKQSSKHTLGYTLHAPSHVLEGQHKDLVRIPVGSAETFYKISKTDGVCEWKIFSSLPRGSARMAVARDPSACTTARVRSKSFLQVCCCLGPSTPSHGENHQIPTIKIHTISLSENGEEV

[5] = biological target: T5, Alpha-1B adrenergic receptor (Homo sapiens, UniProt P35368); assay: Binding affinity towards human Alpha-1B adrenergic receptor
T5 sequence (P35368 whole entry): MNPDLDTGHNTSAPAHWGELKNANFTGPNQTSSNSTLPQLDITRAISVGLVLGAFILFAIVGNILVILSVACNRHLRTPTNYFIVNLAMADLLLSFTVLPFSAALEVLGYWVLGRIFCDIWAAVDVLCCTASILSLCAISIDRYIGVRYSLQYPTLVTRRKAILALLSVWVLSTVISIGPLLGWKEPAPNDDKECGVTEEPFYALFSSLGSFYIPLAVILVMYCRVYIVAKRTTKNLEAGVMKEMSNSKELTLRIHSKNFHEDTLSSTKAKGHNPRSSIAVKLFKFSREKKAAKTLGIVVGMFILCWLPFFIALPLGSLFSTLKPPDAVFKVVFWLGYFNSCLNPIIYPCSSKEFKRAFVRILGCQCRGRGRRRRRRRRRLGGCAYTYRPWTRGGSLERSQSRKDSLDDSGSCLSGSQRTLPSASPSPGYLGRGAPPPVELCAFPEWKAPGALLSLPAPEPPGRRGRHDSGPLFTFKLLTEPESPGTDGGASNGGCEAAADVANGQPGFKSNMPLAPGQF

[6] = biological target: T6, Alpha-1A adrenergic receptor (Homo sapiens, UniProt P35348); assay: Binding affinity for human Alpha-1A adrenergic receptor
T6 sequence (P35348 whole entry): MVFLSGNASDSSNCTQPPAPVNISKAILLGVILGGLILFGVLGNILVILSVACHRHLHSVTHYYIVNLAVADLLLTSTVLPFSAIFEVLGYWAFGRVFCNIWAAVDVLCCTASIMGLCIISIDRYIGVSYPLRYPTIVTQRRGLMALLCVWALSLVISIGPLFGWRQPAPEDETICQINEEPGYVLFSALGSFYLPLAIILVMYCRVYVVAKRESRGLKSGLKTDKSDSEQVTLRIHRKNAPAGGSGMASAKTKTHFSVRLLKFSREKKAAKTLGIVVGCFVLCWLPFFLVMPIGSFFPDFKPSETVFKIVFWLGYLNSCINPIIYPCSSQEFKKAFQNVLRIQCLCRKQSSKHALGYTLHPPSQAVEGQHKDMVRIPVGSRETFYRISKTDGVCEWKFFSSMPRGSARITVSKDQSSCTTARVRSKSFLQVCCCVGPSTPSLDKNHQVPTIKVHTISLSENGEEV

[7] = biological target: T7, Alpha-1B adrenergic receptor (Rattus norvegicus, UniProt P15823); assay: In vitro functional activity at Alpha-1B adrenergic receptor in rat spleen; format: tissue-based; details: read-out: pA2 (converted)
T7 sequence (P15823 whole entry): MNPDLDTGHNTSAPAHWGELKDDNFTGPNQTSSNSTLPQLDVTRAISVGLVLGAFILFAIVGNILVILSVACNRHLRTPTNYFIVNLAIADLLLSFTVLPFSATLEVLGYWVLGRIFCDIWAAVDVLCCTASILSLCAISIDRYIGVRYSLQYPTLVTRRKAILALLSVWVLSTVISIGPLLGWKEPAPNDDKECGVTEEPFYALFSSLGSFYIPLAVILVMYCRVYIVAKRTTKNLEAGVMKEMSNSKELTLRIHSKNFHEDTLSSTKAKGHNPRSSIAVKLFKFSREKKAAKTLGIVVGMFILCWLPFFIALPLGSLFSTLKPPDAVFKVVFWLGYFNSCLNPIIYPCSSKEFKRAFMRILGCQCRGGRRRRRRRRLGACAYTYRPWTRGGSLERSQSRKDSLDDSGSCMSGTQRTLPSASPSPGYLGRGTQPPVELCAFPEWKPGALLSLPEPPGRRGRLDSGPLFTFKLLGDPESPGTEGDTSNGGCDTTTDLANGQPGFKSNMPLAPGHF

SMILES | Ki [1] [nM] | Ki [2] [nM] | Ki [3] [nM] | Ki [4] [nM] | Ki [5] [nM] | Ki [6] [nM] | Kb [7] [nM]
COc1ccccc1N1CCN(CCn2c(=O)[nH]c3sc(C)c(-c4ccccc4)c3c2=O)CC1 | 0.251 | 1.97 | 0.466 | 0.377 | 3.7 | 2.63 | 
COc1ccccc1N1CCN(CCCn2c(=O)[nH]c3scc(-c4ccccc4)c3c2=O)CC1 | 8.2 | 9.58 | 7.15 | 1.25 | 15.8 | 8.49 | 
COc1ccccc1N1CCN(CCN2C(=O)CC3(CCCC3)CC2=O)CC1 [BMY-7378] |  |  |  | 43 | 94.3 |  | 42.7
CC(CN1CCN(c2cc(F)c(F)cc2F)CC1)N1C(=O)CC2(CCCC2)CC1=O (single isomer, unassigned) |  |  | 1.3 |  |  | 14900 | 
COc1ccccc1N1CCN(CCn2c(=O)[nH]c3sc(-c4ccccc4)cc3c2=O)CC1 | 0.361 | 0.578 |  | 0.248 | 1.86 | 0.868 | 
COc1ccccc1N1CCN(CCn2c(=O)[nH]c3sccc3c2=O)CC1 | 0.229 | 0.523 | 0.308 | 0.181 | 1.22 | 0.344 | 
COc1ccccc1N1CCN(CCn2c(=O)c3c(-c4ccccc4)csc3n(C)c2=O)CC1 | 0.71 | 2.62 |  | 0.436 |  | 3.1 | 
